Measured values published in patent publication US9809552B2, “Piperazine derivatives as FASN inhibitors” (Merck Patent GmbH, priority 2013, dated 2017).
pIC50: −log10 of the molar value.

molecular target: T1, human recombinant full-length fatty acid synthase (FASN) (Homo sapiens, UniProt P49327); assay: Biochemical activity testing of human fatty acid synthase FASN (NADPH fluorescence intensity enzyme assay); conditions: 15 min pre-incubation, 30 min reaction at room temperature
T1 construct: human recombinant full-length fatty acid synthase (produced in-house in SF9 cells); made in house; host or cells: SF9 insect cells
Text: Biochemical activity testing of human fatty acid synthase FASN
Fatty acid synthase FASN is a multifunctional enzyme with seven catalytic activities thereby synthesising long chain fatty acids especially palmitoyl-CoA in the presence of co-factor NADPH starting from the substrates acetyl-CoA and malonyl-CoA. The reductive synthesis is realized by the oxidation of NADPH to NADP. Since NADPH has a high fluorescence intensity quantum yield compared to NADP with excitation at 340 nm and emission at 460 nm, the reaction can be monitored via the decrease in fluorescence intensity. The biochemical FASN activity testing was performed as 384 well two-time-point kinetic fluorescence intensity assay format in Greiner low volume medium binding 384-well black microtiter plates in a total assay volume of 8 μl and was used for high throughput screen. In each well 3 μl 40 nM human recombinant full-length fatty acid synthase (produced in-house in SF9 cells) were dispensed in the following assay buffer: 50 mM potassium phosphate buffer pH 7.0, 0.005% (w/v) BSA, 2 mM Glutathione, 0.02% Tween-20. Then 2 μl of 200 μM NADPH in assay buffer were added, followed by the addition of the test compounds in 10 dilution concentrations starting with 30 μM (final concentration) to get a final DMSO content of 1% (v/v). The mixture was incubated for at least 15 min at room temperature. After the pre-incubation the enzymatic reaction was started by the addition of 2 μl substrate solution (80 μM acetyl-CoA, 240 μM malonyl-CoA). A first fluorescence intensity measurement (time point one) was performed with an Envision multimode reader (Perkin Elmer LAS Germany GmbH) at excitation wavelength 340 nm (lamp mode) and emission wavelength 460 nm. The reaction was incubated for 30 minutes at room temperature. After this the fluorescence intensity was measured again in the Envision using the same parameters as described above (second time point measurement). The data were analysed by subtracting the first time point measurement value from the second time point measurement value (after the enzymatic reaction). The differences of the emission signals were determined. These reflect directly the conversion rate of NADPH. The full value used was the inhibitor-free reaction. A pharmacological zero value was used like GSK837149A (Sigma-Aldrich) in a final concentration of 5-10 μM. The inhibitory values (IC50) were determined using either the program Symyx Assay Explorer® or Condosseo® from GeneData.

T1 sequence (P49327 whole entry): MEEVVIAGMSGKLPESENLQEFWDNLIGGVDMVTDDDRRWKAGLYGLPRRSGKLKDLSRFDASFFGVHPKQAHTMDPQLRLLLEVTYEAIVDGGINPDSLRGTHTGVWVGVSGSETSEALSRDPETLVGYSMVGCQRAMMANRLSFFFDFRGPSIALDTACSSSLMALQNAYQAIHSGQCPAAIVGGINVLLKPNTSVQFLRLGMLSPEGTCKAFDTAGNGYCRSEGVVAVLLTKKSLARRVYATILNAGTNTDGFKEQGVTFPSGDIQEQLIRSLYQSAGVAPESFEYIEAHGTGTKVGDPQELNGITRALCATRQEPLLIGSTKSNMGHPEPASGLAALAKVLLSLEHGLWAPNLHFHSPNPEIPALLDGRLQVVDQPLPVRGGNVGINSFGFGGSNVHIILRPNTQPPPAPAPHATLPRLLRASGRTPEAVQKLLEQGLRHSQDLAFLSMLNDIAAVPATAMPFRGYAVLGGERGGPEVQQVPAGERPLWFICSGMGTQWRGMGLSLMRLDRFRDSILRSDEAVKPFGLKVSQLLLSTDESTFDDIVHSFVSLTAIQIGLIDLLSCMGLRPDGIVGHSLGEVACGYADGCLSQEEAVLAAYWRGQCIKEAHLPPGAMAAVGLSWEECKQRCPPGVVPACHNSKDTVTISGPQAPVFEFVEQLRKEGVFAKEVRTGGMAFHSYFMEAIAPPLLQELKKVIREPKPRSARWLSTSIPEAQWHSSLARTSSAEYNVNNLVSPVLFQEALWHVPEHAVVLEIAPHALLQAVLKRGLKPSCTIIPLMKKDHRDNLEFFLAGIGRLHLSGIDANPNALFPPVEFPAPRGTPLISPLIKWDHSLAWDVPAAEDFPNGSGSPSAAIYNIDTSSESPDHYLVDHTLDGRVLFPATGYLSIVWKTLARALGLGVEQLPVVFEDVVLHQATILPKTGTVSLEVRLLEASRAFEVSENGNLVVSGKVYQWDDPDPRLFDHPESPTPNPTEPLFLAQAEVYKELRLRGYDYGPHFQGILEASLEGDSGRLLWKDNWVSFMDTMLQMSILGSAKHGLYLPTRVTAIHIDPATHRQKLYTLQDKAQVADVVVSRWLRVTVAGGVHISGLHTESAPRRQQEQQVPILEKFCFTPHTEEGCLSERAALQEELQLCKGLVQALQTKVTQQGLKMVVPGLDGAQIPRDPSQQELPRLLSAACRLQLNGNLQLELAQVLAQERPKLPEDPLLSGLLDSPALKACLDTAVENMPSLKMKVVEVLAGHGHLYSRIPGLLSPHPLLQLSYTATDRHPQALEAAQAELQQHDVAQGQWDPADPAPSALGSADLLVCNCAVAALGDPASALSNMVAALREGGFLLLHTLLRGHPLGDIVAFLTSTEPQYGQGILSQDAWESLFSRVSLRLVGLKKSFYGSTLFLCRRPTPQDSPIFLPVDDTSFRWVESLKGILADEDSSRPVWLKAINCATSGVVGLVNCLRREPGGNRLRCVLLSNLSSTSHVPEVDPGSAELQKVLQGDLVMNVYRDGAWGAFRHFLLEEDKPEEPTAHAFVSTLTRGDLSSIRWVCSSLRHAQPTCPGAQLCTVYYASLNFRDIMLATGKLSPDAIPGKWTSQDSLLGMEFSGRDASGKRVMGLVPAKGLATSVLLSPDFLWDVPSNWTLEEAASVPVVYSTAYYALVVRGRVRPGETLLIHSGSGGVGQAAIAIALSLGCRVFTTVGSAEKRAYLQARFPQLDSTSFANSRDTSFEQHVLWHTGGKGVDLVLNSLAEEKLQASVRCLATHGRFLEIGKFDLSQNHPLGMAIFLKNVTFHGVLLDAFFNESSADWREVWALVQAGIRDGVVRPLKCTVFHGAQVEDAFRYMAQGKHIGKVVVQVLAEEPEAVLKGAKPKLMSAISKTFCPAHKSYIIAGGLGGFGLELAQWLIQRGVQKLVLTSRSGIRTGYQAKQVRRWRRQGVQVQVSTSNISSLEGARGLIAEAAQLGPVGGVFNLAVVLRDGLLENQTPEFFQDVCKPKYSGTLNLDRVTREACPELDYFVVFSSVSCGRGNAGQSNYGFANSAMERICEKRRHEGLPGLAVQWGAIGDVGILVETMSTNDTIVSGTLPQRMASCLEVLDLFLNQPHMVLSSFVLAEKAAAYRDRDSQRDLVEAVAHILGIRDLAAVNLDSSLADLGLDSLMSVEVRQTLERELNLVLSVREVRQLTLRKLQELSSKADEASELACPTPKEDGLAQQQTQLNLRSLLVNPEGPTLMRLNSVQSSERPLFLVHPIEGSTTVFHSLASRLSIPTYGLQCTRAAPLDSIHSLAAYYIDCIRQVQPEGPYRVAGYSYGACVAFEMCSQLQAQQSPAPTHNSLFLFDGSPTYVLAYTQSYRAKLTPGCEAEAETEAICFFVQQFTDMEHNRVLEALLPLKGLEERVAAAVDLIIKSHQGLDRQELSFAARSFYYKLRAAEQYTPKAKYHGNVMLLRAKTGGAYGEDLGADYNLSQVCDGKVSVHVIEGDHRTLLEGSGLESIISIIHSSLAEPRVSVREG

| SMILES | pIC50 |
| --- | --- |
| CCC(=O)N1CCN(C(=O)c2ccc(-c3ccc4c[n+]([O-])ccc4c3)cc2)CC1 [Compound A7, 1-{4-[4-(2-oxy-isoquinolin-6-yl)-benzoyl]-piperazin-1-yl}-propan-1-one] | > 6.52 |
| CCC(=O)N1CCN(C(=O)c2ccc(-c3ccc4cnccc4c3)cc2)CC1 [Compound A1, 1-[4-(4-isoquinolin-6-yl-benzoyl)-piperazin-1-yl]-propan-1-one] | > 6.52 |
| CC(=O)N1CCN(C(=O)c2ccc(-c3ccc4cnccc4c3)cc2)CC1 [Compound A2, 1-[4-(4-isoquinolin-6-yl-benzoyl)-piperazin-1-yl]ethanone] | 5.52 to 6.52 |
| O=C(c1ccc(-c2ccc3cnccc3c2)cc1)N1CCN(C(=O)C2CC2)CC1 [Compound A3, (4-cyclopropanecarbonyl-piperazin-1-yl)-(4-isoquinolin-6-yl-phenyl)-methanone] | > 6.52 |
| CCCCC(=O)N1CCN(C(=O)c2ccc(-c3ccc4cnccc4c3)cc2)CC1 [Compound A5, 1-[4-(4-isoquinolin-6-yl-benzoyl)-piperazin-1-yl]-pentan-1-one] | > 6.52 |
| CCCC(=O)N1CCN(C(=O)c2ccc(-c3ccc4cnc(OC)cc4c3)cc2)CC1 [Compound A4, 1-{4-[4-(3-methoxy-isoquinolin-6-yl)-benzoyl]-piperazin-1-yl}-butan-1-one] | 5.52 to 6.52 |
| CCCC(=O)N1CCN(C(=O)c2ccc(-c3ccc4cnccc4c3)cc2)CC1 [Compound A6, 1-[4-(4-isoquinolin-6-yl-benzoyl)-piperazin-1-yl]-butan-1-one] | > 6.52 |
